Laboratory results taken from paper PMC10433430, “The transport of mannitol in Sinorhizobium meliloti is carried out by a broad-substrate polyol transporter SmoEFGK and is affected by the ability to transport and metabolize fructose” (Microbiology, 2023).
One block for each compound: values may come before it.

Key:
MtlK = molecular target: T1, MtlK (Sinorhizobium meliloti, UniProt Q92N07); assay: in-gel dehydrogenase activity stain, native PAGE; type: biochemical; settings: NAD+, phenazine methosulfate, nitro blue tetrazolium; cell extract
T1 construct: full length from plasmid pJD02 (mtlK/pCO37) in S. meliloti smoS mutant; cell extract, native gel
T1 sequence (Q92N07 entry or part of it): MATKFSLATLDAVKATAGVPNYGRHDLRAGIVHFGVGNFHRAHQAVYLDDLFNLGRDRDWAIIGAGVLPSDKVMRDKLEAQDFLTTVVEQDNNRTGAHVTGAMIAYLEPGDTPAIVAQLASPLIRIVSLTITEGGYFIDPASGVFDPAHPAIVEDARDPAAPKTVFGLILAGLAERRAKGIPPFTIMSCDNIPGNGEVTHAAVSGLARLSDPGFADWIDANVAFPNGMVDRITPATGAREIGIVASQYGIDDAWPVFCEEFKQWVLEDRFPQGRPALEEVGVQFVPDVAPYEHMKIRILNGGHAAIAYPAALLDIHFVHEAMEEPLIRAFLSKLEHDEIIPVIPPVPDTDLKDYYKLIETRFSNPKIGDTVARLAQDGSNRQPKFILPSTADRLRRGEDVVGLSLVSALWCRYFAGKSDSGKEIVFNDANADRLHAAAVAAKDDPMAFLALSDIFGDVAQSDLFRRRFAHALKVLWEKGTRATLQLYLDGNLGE

SmoEFGK [1] = molecular target: T2, SmoEFGK (Sinorhizobium meliloti, UniProt Q92N02); assay: […]-mannitol uptake competition, intact cells; type: cell-based; settings: 2 µM 14C-mannitol as tracer, mannitol-grown wild-type Rm1021
T2 construct: gene smoE; native ABC transporter in intact S. meliloti Rm1021 cells grown on mannitol; smoK::Tn5-B20 mutant as control; with ABC transporter, sorbitol/mannitol permease SmoF; ABC transporter, sorbitol/mannitol permease SmoG
T2 sequence (Q92N03 entry or part of it): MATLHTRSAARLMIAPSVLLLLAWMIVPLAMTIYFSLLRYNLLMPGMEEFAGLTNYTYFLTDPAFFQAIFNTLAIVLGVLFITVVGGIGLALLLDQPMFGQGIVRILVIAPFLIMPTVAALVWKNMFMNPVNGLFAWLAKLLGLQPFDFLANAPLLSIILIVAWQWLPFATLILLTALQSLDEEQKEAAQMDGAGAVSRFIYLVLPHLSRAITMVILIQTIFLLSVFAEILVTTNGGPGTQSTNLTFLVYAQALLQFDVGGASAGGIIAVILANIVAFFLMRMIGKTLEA
T2 sequence (Q92N04 entry or part of it, further chain): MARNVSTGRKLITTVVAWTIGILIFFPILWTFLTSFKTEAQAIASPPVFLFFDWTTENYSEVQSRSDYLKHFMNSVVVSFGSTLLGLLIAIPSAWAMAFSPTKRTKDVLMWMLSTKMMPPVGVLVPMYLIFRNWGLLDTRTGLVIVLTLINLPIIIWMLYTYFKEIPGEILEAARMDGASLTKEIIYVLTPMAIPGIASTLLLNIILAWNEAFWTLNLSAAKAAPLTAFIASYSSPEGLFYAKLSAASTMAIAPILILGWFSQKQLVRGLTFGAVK
T2 sequence (Q92N02 entry or part of it): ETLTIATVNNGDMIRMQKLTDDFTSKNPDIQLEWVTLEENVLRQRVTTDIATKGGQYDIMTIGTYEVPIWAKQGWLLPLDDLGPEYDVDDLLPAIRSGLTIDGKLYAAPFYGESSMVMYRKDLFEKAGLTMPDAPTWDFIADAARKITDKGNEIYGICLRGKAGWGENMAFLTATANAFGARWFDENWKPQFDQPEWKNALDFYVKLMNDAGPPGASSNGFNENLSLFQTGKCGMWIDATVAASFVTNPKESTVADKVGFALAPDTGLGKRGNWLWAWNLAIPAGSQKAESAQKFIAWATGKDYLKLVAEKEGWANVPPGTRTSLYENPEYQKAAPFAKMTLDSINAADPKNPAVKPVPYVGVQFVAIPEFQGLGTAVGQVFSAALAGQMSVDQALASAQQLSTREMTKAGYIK
T2 sequence (Q92N05 entry or part of it, further chain): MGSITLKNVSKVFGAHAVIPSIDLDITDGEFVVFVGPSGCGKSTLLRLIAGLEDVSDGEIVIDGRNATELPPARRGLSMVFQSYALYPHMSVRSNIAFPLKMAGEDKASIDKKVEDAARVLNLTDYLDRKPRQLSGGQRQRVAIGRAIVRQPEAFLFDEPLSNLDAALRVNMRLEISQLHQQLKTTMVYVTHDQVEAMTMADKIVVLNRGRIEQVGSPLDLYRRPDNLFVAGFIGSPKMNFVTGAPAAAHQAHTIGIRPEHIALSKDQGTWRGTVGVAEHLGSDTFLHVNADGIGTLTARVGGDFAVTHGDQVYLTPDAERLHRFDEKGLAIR

SmoS = molecular target: T3, SmoS (Sinorhizobium meliloti, UniProt Q92N06); assay: in-gel dehydrogenase activity stain, native PAGE; type: biochemical; settings: sorbitol as substrate, phenazine methosulfate, nitro blue tetrazolium; cell extract
T3 construct: full length from plasmid pSMc01500 (smoS/pCO37) in S. meliloti smoS mutant; cell extract, native gel
T3 sequence (Q92N06 entry or part of it): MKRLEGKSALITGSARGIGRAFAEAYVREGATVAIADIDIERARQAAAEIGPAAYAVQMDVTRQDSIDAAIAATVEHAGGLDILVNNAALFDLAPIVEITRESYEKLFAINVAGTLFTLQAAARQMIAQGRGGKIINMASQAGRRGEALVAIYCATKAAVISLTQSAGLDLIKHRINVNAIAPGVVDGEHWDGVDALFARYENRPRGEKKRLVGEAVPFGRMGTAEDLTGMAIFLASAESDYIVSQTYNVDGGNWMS

Frk = molecular target: T4, Frk (Sinorhizobium meliloti, UniProt Q92SC5); assay: PK/LDH-coupled kinase assay, […] nm; type: biochemical; settings: 6 mM fructose, 3 mM ATP, 6 mM MgCl2, HEPES pH 7.5; partially purified
T4 construct: N-terminal 6xHis tag, expressed from pMK48 (pRK7813) in S. meliloti Rm1021, partially purified on Ni-NTA
T4 sequence (Q92SC5 1-308): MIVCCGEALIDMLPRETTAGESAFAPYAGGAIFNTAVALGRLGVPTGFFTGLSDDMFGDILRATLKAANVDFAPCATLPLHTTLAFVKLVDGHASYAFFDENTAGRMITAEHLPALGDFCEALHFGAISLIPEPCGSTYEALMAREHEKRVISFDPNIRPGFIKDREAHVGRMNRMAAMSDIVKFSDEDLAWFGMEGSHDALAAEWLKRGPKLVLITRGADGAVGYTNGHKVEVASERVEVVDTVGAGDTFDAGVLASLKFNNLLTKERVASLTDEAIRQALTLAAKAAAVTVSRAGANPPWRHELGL

SmoEFGK [2] = molecular target: T2, SmoEFGK; assay: […]-mannitol uptake competition, intact cells; type: cell-based; settings: 2 µM 14C-mannitol as tracer, 10 µM unlabelled maltitol; mannitol-grown wild-type Rm1021
SmoEFGK [3] = molecular target: T2, SmoEFGK; assay: […]-mannitol uptake, wild type against smoK mutant; type: cell-based; settings: labelled compound, 2 µM; cells grown in mannitol and glucose

% reduction of uptake at 2 μM (SmoEFGK [1]; 2 µM unlabelled D-arabitol): ~ 50%
Compound: OC[C@@H](O)C(O)[C@H](O)CO [D-arabitol]
in-gel dehydrogenase activity stain, native PAGE (MtlK): if D-arabitol was used as a substrate, bands that are coincident with what mannitol result

Compound: NC(=O)c1ccc[n+]([C@@H]2O[C@H](COP(=O)(O)OP(=O)(O)OC[C@H]3O[C@@H](n4cnc5c(N)ncnc54)[C@H](O)[C@@H]3O)[C@@H](O)[C@H]2O)c1 [NAD^+]
in-gel dehydrogenase activity stain, native PAGE (SmoS): smoS encodes an NAD^+-dependent sorbitol and galactitol dehydrogenase

Compound: OCC1(O)OC[C@@H](O)[C@@H](O)[C@@H]1O (stereo partly shown) [fructose]
PK/LDH-coupled kinase assay, 340 nm (Frk): partially purified Frk was assayed for kinase activity using fructose as a substrate

% reduction of uptake at 10 μM (SmoEFGK [2]): > 50%
Compound: OC[C@@H](O)[C@@H](O[C@H]1O[C@H](CO)[C@@H](O)[C@H](O)[C@H]1O)[C@H](O)[C@@H](O)CO [maltitol]

Compound: OC[C@@H](O)[C@@H](O)[C@H](O)[C@H](O)CO [mannitol]
14C-mannitol uptake, wild type against smoK mutant (SmoEFGK [3]): SRmD495 cells were severely compromised in their ability to transport mannitol

Compound: OC[C@@H](O)[C@@H](O)[C@H](O)[C@@H](O)CO [sorbitol]
% reduction of uptake at 2 μM (SmoEFGK [1]; 2 µM unlabelled sorbitol): ~ 50%
